Results published in patent US12459951B2, “Compounds that interact with RAS superfamily proteins for treatment of cancers, inflammatory diseases, rasopathies, and fibrotic disease” (SHY Therapeutics, LLC, priority 2022, dated 2025).

Experiments:
[1] = system: MiaPaca-2 (expressing KRAS G12C mutant); assay: Proliferation Assay (Cell Viability Assay); format: cell-based; settings: Homo sapiens, MIA PaCa-2; read-out: Proliferation in MiaPaca-2: IC50
Summary of the method: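 MiaPaca-2 cells (KRAS G12C) were grown in DMEM-high glucose with 10% FBS, seeded at 2000–5000 cells/well and cultured overnight. Compounds were added at 10 μM final, or as serial dilutions for IC50, in 0.3% DMSO/10% FBS for 2–4 days at 37 °C, 5% CO2. Viability was measured with CellTiter 96 Aqueous One and % inhibition calculated.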

KRas wild type = assay: Ras GTP Binding Domain Inhibition Assay (Ras Superfamily Assay); settings: for KRas wild type + SOS: % inh.: with SOS; for KRas wild type: % inh.: without SOS
Summary of the method: (§1)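 Binding of 100 nM fluorescent GTP (Cy3 or Cy5, 45 min, room temperature) was read after washes from plate-captured His-tagged protein. Beforehand, compounds at 20 μM or in dilution series for IC50 sat 3 h on the protein in Tris buffer pH 7.4 or 7.0 with 1% DMSO, Sos GEF optionally added for the last hour.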

KRas G12D mutant = assay: as above; settings: for KRas G12D mutant + SOS: % inh.: with SOS; for KRas G12D mutant: % inh.: without SOS
Summary of the method: as §1

IL6 = assay: IL-6 Quantification Assay (ELISA), LPS-stimulated RAW 264.7; format: cell-based; design: inhibition: dose or concentration left out as unconfirmed; settings: Mus musculus, RAW264.7; read-out: IL-6: % inh.

Compound	IC50 [1] [nM]	KRas wild type + SOS: % inh. (KRas wild type; 20 μM compound)	KRas wild type: % inh. (KRas wild type; 20 μM compound)	KRas G12D mutant + SOS: % inh. (KRas G12D mutant; 20 μM compound)	KRas G12D mutant: % inh. (KRas G12D mutant; 20 μM compound)	inhibition (IL6) [%]	KRas wild type + SOS: % inh. (KRas wild type; at 20 μM)	KRas wild type: % inh. (KRas wild type; at 20 μM)	KRas G12D mutant + SOS: % inh. (KRas G12D mutant; at 20 μM)	KRas G12D mutant: % inh. (KRas G12D mutant; at 20 μM)
COCC1CCN(c2nc(-c3ccccn3)nn3cc(-c4ccn(C(C)C)n4)c(C)c23)C1 (racemic) [Compound 10, rac 6-(1-Isopropyl-1H-pyrazol-3-yl)-4-(3-(methoxymethyl)pyrrolidin-1-yl)-5-methyl-2-(pyridin-2-yl)pyrrolo[2,1-f][1,2,4]triazine]	> 1000	0 (0 = 0% inhibition)	A (A = 1-25% inhibition)	0 (0 = 0% inhibition)	A (A = 1-25% inhibition)	25 to 49	–	–	–	–
COC[C@@H]1CC[C@@H]1CNc1nc(-c2ccccn2)nn2cc(-c3ccn(C(C)C)n3)c(C)c12 (racemic) [Compound 11, rac 6-(1-Isopropyl-1H-pyrazol-3-yl)-N-(((1S,2R)-2-(methoxymethyl)cyclobutyl)methyl)-5-methyl-2-(pyridin-2-yl)pyrrolo[2,1-f][1,2,4]triazin-4-amine]	> 1000	0 (0 = 0% inhibition)	0 (0 = 0% inhibition)	0 (0 = 0% inhibition)	A (A = 1-25% inhibition)	0	–	–	–	–
COC1CCCN(c2nc(-c3ccccn3)nn3cc(-c4ccn(C(C)C)n4)c(C)c23)C1 (racemic) [Compound 12, rac 6-(1-Isopropyl-1H-pyrazol-3-yl)-4-(3-methoxypiperidin-1-yl)-5-methyl-2-(pyridin-2-yl)pyrrolo[2,1-f][1,2,4]triazine]	> 1000	0 (0 = 0% inhibition)	0 (0 = 0% inhibition)	0 (0 = 0% inhibition)	A (A = 1-25% inhibition)	25 to 49	–	–	–	–
CO[C@H]1CC[C@H](Nc2nc(-c3nccn3C)nn3cc(-c4ccn(C)n4)c(C(=O)NCC(F)(F)F)c23)C1 (racemic) [Compound 181, 4-(((1S,3S)-3-Methoxycyclopentyl)amino)-2-(1-methyl-1H-imidazol-2-yl)-6-(1-methyl-1H-pyrazol-3-yl)-N-(2,2,2-trifluoroethyl)pyrrolo[2,1-f][1,2,4]triazine-5-carboxamide]	> 1000	A (A = 1-25% inhibition)	A (A = 1-25% inhibition)	0 (0 = 0% inhibition)	A (A = 1-25% inhibition)	50 to 74	–	–	–	–
CO[C@H]1CC[C@H](Nc2nc(-c3nccn3C)nn3cc(-c4ccn(C)n4)c(C(=O)NC4CC4)c23)C1 (racemic) [Compound 182, rac N-Cyclopropyl-4-(((1S,3S)-3-methoxycyclo-pentyl)amino)-2-(1-methyl-1H-imidazol-2-yl)-6-(1-methyl-1H-pyrazol-3-yl)pyrrolo[2,1-f][1,2,4]triazine-5-carboxamide]	> 1000	A (A = 1-25% inhibition)	A (A = 1-25% inhibition)	0 (0 = 0% inhibition)	A (A = 1-25% inhibition)	25 to 49	–	–	–	–
COCCNC(=O)c1c(-c2ccn(C)n2)cn2nc(-c3nccn3C)nc(N[C@H]3CC[C@H](OC)C3)c12 (racemic) [Compound 183, rac 4-(((1S,3S)-3-Methoxycyclo-pentyl)amino)-N-(2-methoxyethyl)-2-(1-methyl-1H-imidazol-2-yl)-6-(1-methyl-1H-pyrazol-3-yl)pyrrolo[2,1-f][1,2,4]triazine-5-carboxamide]	> 1000	A (A = 1-25% inhibition)	0 (0 = 0% inhibition)	A (A = 1-25% inhibition)	A (A = 1-25% inhibition)	25 to 49	–	–	–	–
COCCCNC(=O)c1c(-c2ccn(C)n2)cn2nc(-c3nccn3C)nc(N[C@H]3CC[C@H](OC)C3)c12 (racemic) [Compound 184, rac 4-(((1S,3S)-3-methoxycyclo-pentyl)amino)-N-(3-methoxypropyl)-2-(1-methyl-1H-imidazol-2-yl)-6-(1-methyl-1H-pyrazol-3-yl)pyrrolo[2,1-f][1,2,4]triazine-5-carboxamide]	> 1000	A (A = 1-25% inhibition)	A (A = 1-25% inhibition)	0 (0 = 0% inhibition)	B (B = 26-49% inhibition)	25 to 49	–	–	–	–
CO[C@H]1CC[C@H](Nc2nc(-c3nccn3C)nn3cc(-c4ccn(C)n4)c(C(=O)NCCN4CCOCC4)c23)C1 (racemic) [Compound 185, rac 4-(((1S,3S)-3-methoxycyclo-pentyl)amino)-2-(1-methyl-1H-imidazol-2-yl)-6-(1-methyl-1H-pyrazol-3-yl)-N-(2-morpholino-ethyl)pyrrolo[2,1-f][1,2,4]triazine-5-carboxamide]	> 1000	0 (0 = 0% inhibition)	A (A = 1-25% inhibition)	0 (0 = 0% inhibition)	A (A = 1-25% inhibition)	25 to 49	–	–	–	–
CO[C@@H]1C[C@H]1Nc1nc(-c2nccn2C)nn2cc(-c3cccnc3)c(-c3ccccc3)c12 (racemic) [Compound 190, N-((1R,2R)-2-Methoxycyclopropyl)-2-(1-methyl-1H-imidazol-2-yl)-5-phenyl-6-(pyridin-3-yl)pyrrolo[2,1-f][1,2,4]triazin-4-amine]	> 1000	–	–	–	–	50 to 74	B (B = 26-49% inhibition)	A (A = 1-25% inhibition)	B (B = 26-49% inhibition)	B (B = 26-49% inhibition)
CO[C@H]1CC[C@@H](Nc2nc(-c3nccn3C)nn3cc(-c4cccnc4)c(-c4ccccc4)c23)C1 (racemic) [Compound 193, rac N-((1R,3S)-3-Methoxycyclopentyl)-2-(1-methyl-1H-imidazol-2-yl)-5-phenyl-6-(pyridin-3-yl)pyrrolo[2,1-f][1,2,4]triazin-4-amine]	> 1000	–	–	–	–	75 to 100	A (A = 1-25% inhibition)	A (A = 1-25% inhibition)	A (A = 1-25% inhibition)	A (A = 1-25% inhibition)
CO[C@H]1CC[C@H](Nc2nc(-c3nccn3C)nn3cc(-c4cccnc4)c(-c4ccccc4)c23)C1 (racemic) [Compound 194, rac N-((1S,3S)-3-Methoxycyclopentyl)-2-(1-methyl-1H-imidazol-2-yl)-5-phenyl-6-(pyridin-3-yl)pyrrolo[2,1-f][1,2,4]triazin-4-amine]	> 1000	–	–	–	–	75 to 100	0 (0 = 0% inhibition)	A (A = 1-25% inhibition)	A (A = 1-25% inhibition)	A (A = 1-25% inhibition)
CO[C@@H]1C[C@H]1Nc1nc(-c2nccn2C)nn2cc(-c3ccncc3)c(-c3ccccc3)c12 (racemic) [Compound 197, rac N-((1R,2R)-2-methoxycyclopropyl)-2-(1-methyl-1H-imidazol-2-yl)-5-phenyl-6-(pyridin-4-yl)pyrrolo[2,1-f][1,2,4]triazin-4-amine]	> 1000	–	–	–	–	50 to 74	A (A = 1-25% inhibition)	0 (0 = 0% inhibition)	A (A = 1-25% inhibition)	A (A = 1-25% inhibition)
CO[C@H]1CC[C@@H](Nc2nc(-c3nccn3C)nn3cc(-c4ccncc4)c(-c4ccccc4)c23)C1 (racemic) [Compound 200, rac N-((1R,3S)-3-Methoxycyclopentyl)-2-(1-methyl-1H-imidazol-2-yl)-5-phenyl-6-(pyridin-4-yl)pyrrolo[2,1-f][1,2,4]triazin-4-amine]	> 1000	–	–	–	–	1 to 24	B (B = 26-49% inhibition)	B (B = 26-49% inhibition)	B (B = 26-49% inhibition)	B (B = 26-49% inhibition)
CO[C@H]1CC[C@H](Nc2nc(-c3nccn3C)nn3cc(-c4ccncc4)c(-c4ccccc4)c23)C1 (racemic) [Compound 201, rac N-((1S,3S)-3-Methoxycyclopentyl)-2-(1-methyl-1H-imidazol-2-yl)-5-phenyl-6-(pyridin-4-yl)pyrrolo[2,1-f][1,2,4]triazin-4-amine]	> 1000	–	–	–	–	75 to 100	B (B = 26-49% inhibition)	A (A = 1-25% inhibition)	B (B = 26-49% inhibition)	B (B = 26-49% inhibition)
CO[C@H]1C[C@H](Nc2nc(-c3nccn3C)nn3cc(-c4cccc(OCCN)c4)c(-c4ccccc4)c23)C1 [Compound 205, 6-(3-(2-Aminoethoxy)phenyl)-N-((1r,3r)-3-methoxycyclobutyl)-2-(1-methyl-1H-imidazol-2-yl)-5-phenylpyrrolo[2,1-f][1,2,4]triazin-4-amine]	> 1000	–	–	–	–	–	A (A = 1-25% inhibition)	A (A = 1-25% inhibition)	A (A = 1-25% inhibition)	A (A = 1-25% inhibition)
